From ChEMBL document CHEMBL1201861, “Genomics of Drug Sensitity in Cancer screening data, Wellcome Trust Sanger Institute”
Several values for one entry are separate records, joined by “and”; a condition that tells them apart may be missing. Equal entries are not always repeated.

Assays:
Test in all cases: cells
KYSE-510 = type: functional, cell-based, Homo sapiens;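 further: cell viability readout used to measure how strongly growth of the cell line is suppressed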
Description: SANGER: Inhibition of human KYSE-510 cell growth in a cell viability assay.

GB-1 = type: functional, cell-based, Homo sapiens;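 further: growth of GB-1 cells judged by a viability assay, IC50 marks the concentration inhibiting growth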
Description: SANGER: Inhibition of human GB-1 cell growth in a cell viability assay.

HMV-2 cell line = type: functional, cell-based, Homo sapiens; settings: hmv-2;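 further: growth inhibition of HMV-II cells, read out with a cell viability assay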
Description: SANGER: Inhibition of human HMV-II cell growth in a cell viability assay.

LOX IMVI = type: functional, cell-based; settings: Homo sapiens
Description: SANGER: Inhibition of human LOXIMVI cell growth in a cell viability assay.

8505C = type: functional, cell-based, Homo sapiens
Description: SANGER: Inhibition of human 8505C cell growth in a cell viability assay.

HuTu80 = type: functional, cell-based, Homo sapiens, HUTU-80;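 further: growth inhibition of HuTu80 human cells, determined with a cell viability readout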
Description: SANGER: Inhibition of human HUTU-80 cell growth in a cell viability assay.

SW-620 = type: functional, cell-based, Homo sapiens;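 further: growth inhibition of human SW-620 cells, measured by a cell viability assay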
Description: SANGER: Inhibition of human SW620 cell growth in a cell viability assay.

A2780 = type: functional, cell-based, Homo sapiens;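 further: growth inhibition of A2780 cells, read out with a cell viability assay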
Description: SANGER: Inhibition of human A2780 cell growth in a cell viability assay.

NCI-H1355 = type: functional, cell-based, Homo sapiens;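 further: growth inhibition of human NCI-H1355 cells, read out by a cell viability assay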
Description: SANGER: Inhibition of human NCI-H1355 cell growth in a cell viability assay.

SNU-387 = type: functional, cell-based, Homo sapiens
Description: SANGER: Inhibition of human SNU-387 cell growth in a cell viability assay.

RKO = type: functional, cell-based, Homo sapiens;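 further: growth inhibition of human RKO cells, read out with a cell viability assay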
Description: SANGER: Inhibition of human RKO cell growth in a cell viability assay.

NCI-H1650 = type: functional, cell-based, Homo sapiens;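 further: growth inhibition of human NCI-H1650 cells measured by a cell viability assay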
Description: SANGER: Inhibition of human NCI-H1650 cell growth in a cell viability assay.

AN3-CA = type: functional, cell-based; settings: Homo sapiens;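 further: growth inhibition of human AN3-CA cells measured by a cell viability assay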
Description: SANGER: Inhibition of human AN3-CA cell growth in a cell viability assay.

NCI-H810 = type: functional, cell-based, Homo sapiens;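 further: IC50 reflects inhibition of cancer cell line growth, read out with a cell viability assay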
Description: SANGER: Inhibition of human NCI-H810 cell growth in a cell viability assay.

YAPC = type: functional, cell-based, Homo sapiens;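 further: growth inhibition of YAPC cells, measured with a cell viability assay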
Description: SANGER: Inhibition of human YAPC cell growth in a cell viability assay.

MS-1 = type: functional, cell-based; settings: Homo sapiens;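 further: growth inhibition of MS-1 cells, read out by cell viability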
Description: SANGER: Inhibition of human MS-1 cell growth in a cell viability assay.

SCC-25 = type: functional, cell-based, Homo sapiens;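 further: growth inhibition of SCC-25 cells, measured with a cell viability assay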
Description: SANGER: Inhibition of human SCC-25 cell growth in a cell viability assay.

TGBC24TKB = type: functional, cell-based, Homo sapiens;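 further: growth inhibition of human TGBC24TKB cells, read out with a cell viability assay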
Description: SANGER: Inhibition of human TGBC24TKB cell growth in a cell viability assay.

TYK-nu = type: functional, cell-based, Homo sapiens;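 further: growth inhibition of human TYK-nu cells, read out by a cell viability assay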
Description: SANGER: Inhibition of human TYK-nu cell growth in a cell viability assay.

MEG-01 = type: functional, cell-based; settings: Homo sapiens;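 further: growth inhibition of MEG-01 cells, read out by a cell viability assay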
Description: SANGER: Inhibition of human MEG-01 cell growth in a cell viability assay.

786-0 = type: functional, cell-based, Homo sapiens
Description: SANGER: Inhibition of human 786-0 cell growth in a cell viability assay.

HCE-T = type: functional, cell-based, Homo sapiens;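 further: cell viability assay read-out, reporting inhibition of HCE-T cell growth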
Description: SANGER: Inhibition of human HCE-T cell growth in a cell viability assay.

SCH = type: functional, cell-based, Homo sapiens;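 further: growth inhibition of human SCH cells, read out in a cell viability assay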
Description: SANGER: Inhibition of human SCH cell growth in a cell viability assay.

RT-112 = type: functional, cell-based, Homo sapiens
Description: SANGER: Inhibition of human RT-112 cell growth in a cell viability assay.

CHL-1 = type: functional, cell-based, Homo sapiens;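 further: cell growth inhibition, read out with a cell viability assay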
Description: SANGER: Inhibition of human CHL-1 cell growth in a cell viability assay.

Capan-2 = type: functional, cell-based, Homo sapiens;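 further: Capan-2 cell growth inhibition, read out with a viability assay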
Description: SANGER: Inhibition of human Capan-2 cell growth in a cell viability assay.

SK-LU-1 = type: functional, cell-based, Homo sapiens;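 further: cell viability assay measuring growth inhibition of human SK-LU-1 cells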
Description: SANGER: Inhibition of human SK-LU-1 cell growth in a cell viability assay.

NCI-H520 = type: functional, cell-based, Homo sapiens;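 further: growth inhibition of NCI-H520 cells, measured by a cell viability assay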
Description: SANGER: Inhibition of human NCI-H520 cell growth in a cell viability assay.

KYSE-520 cell line = type: functional, cell-based, Homo sapiens;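 further: growth inhibition of human KYSE-520 cells, read out with a viability assay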
Description: SANGER: Inhibition of human KYSE-520 cell growth in a cell viability assay.

HCC1954 = type: functional, cell-based, Homo sapiens;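 further: growth inhibition of human HCC1954 cells, read out with a cell viability assay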
Description: SANGER: Inhibition of human HCC1954 cell growth in a cell viability assay.

LC-2-ad = type: functional, cell-based, Homo sapiens;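 further: growth inhibition of human LC-2-ad cells, read out with a cell viability assay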
Description: SANGER: Inhibition of human LC-2-ad cell growth in a cell viability assay.

KNS-81-FD = type: functional, cell-based, Homo sapiens;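 further: growth inhibition of KNS-81-FD cells, read out with a cell viability assay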
Description: SANGER: Inhibition of human KNS-81-FD cell growth in a cell viability assay.

ES7 = type: functional, cell-based, Homo sapiens;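 further: growth inhibition of cultured human ES7 cells, read out as cell viability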
Description: SANGER: Inhibition of human ES7 cell growth in a cell viability assay.

TGW = type: functional, cell-based; settings: Homo sapiens;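 further: growth inhibition of human TGW cells, read out with a cell viability assay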
Description: SANGER: Inhibition of human TGW cell growth in a cell viability assay.

OVCAR-3 = type: functional, cell-based, Homo sapiens;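 further: growth inhibition of human OVCAR-3 cells, determined by a cell viability assay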
Description: SANGER: Inhibition of human OVCAR-3 cell growth in a cell viability assay.

SK-MEL-24 = type: functional, cell-based; settings: Homo sapiens;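 further: growth inhibition read out by a cell viability assay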
Description: SANGER: Inhibition of human SK-MEL-24 cell growth in a cell viability assay.

TE-10 = type: functional, cell-based, Homo sapiens;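 further: growth inhibition of TE-10 cells, measured by a cell viability assay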
Description: SANGER: Inhibition of human TE-10 cell growth in a cell viability assay.

NB10 = type: functional, cell-based, Homo sapiens;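 further: growth inhibition of NB10 cells, read out by a cell viability assay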
Description: SANGER: Inhibition of human NB10 cell growth in a cell viability assay.

MN-60 = type: functional, cell-based; settings: Homo sapiens;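 further: growth inhibition of the MN-60 cell line, determined with a cell viability assay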
Description: SANGER: Inhibition of human MN-60 cell growth in a cell viability assay.

L-363 = type: functional, cell-based; settings: Homo sapiens
Description: SANGER: Inhibition of human L-363 cell growth in a cell viability assay.

SJSA-1 = type: functional, cell-based, Homo sapiens;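 further: growth inhibition of human SJSA-1 cells, read out through a cell viability measurement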
Description: SANGER: Inhibition of human SJSA-1 cell growth in a cell viability assay.

KYSE-70 cell line = type: functional, cell-based, Homo sapiens;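 further: cell viability assay read-out, with IC50 expressing suppression of KYSE-70 cell growth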
Description: SANGER: Inhibition of human KYSE-70 cell growth in a cell viability assay.

NB7 = type: functional, cell-based; settings: Homo sapiens;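 further: growth inhibition of NB7 cells, read out with a cell viability assay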
Description: SANGER: Inhibition of human NB7 cell growth in a cell viability assay.

HuP-T4 = type: functional, cell-based, Homo sapiens;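 further: cell viability assay measuring how much HuP-T4 cell growth is inhibited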
Description: SANGER: Inhibition of human HuP-T4 cell growth in a cell viability assay.

FTC-133 = type: functional, cell-based, Homo sapiens
BB49-HNC = type: functional, cell-based, Homo sapiens;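 further: cell viability assay read-out, reported as inhibition of BB49-HNC cell growth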
Description: SANGER: Inhibition of human BB49-HNC cell growth in a cell viability assay.

SF-126 = type: functional, cell-based, Homo sapiens;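 further: growth inhibition of human SF126 cells, read out with a cell viability assay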
Description: SANGER: Inhibition of human SF126 cell growth in a cell viability assay.

JVM-3 = type: functional, cell-based; settings: Homo sapiens;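 further: growth inhibition of human JVM-3 cells, read out with a cell viability assay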
Description: SANGER: Inhibition of human JVM-3 cell growth in a cell viability assay.

OCI-AML2 = type: functional, cell-based; settings: Homo sapiens;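 further: growth inhibition of OCI-AML2 cells, read out with a cell viability assay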
Description: SANGER: Inhibition of human OCI-AML2 cell growth in a cell viability assay.

ES5 = type: functional, cell-based, Homo sapiens;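 further: growth inhibition of human ES5 cells, read out by a cell viability assay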
Description: SANGER: Inhibition of human ES5 cell growth in a cell viability assay.

SNU-5 = type: functional, cell-based; settings: Homo sapiens;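 further: cell viability readout used to measure growth inhibition in human NCI-SNU-5 cells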
Description: SANGER: Inhibition of human NCI-SNU-5 cell growth in a cell viability assay.

KP-N-YN = type: functional, cell-based; settings: Homo sapiens;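 further: growth inhibition of KP-N-YN cells, read out with a cell viability assay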
Description: SANGER: Inhibition of human KP-N-YN cell growth in a cell viability assay.

LoVo = type: functional, cell-based; settings: Homo sapiens;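 further: growth inhibition of human LoVo cells, read out with a cell viability assay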
Description: SANGER: Inhibition of human LoVo cell growth in a cell viability assay.

`Cc1cc([C@@H](C)Nc2ccccc2C(=O)O)c2nc(N3CCOCC3)cc(=O)n2c1` [AZD-6482] was tested, and the IC50 (KYSE-510; Homo sapiens, KYSE-510) was greater than 5.12 µM, the IC50 (KYSE-510; kyse-510) was greater than 5.12 µM and the IC50 (GB-1; gb-1) was greater than 5.12 µM. The IC50 (HMV-2 cell line) was greater than 5.12 µM, the IC50 (LOX IMVI) was greater than 5.12 µM and the IC50 (8505C; 8505c) was greater than 5.12 µM. For the same compound, the IC50 (HuTu80; Homo sapiens, HuTu80) was greater than 5.12 µM, the IC50 (HuTu80; hutu-80) was greater than 5.12 µM and the IC50 (SW-620; sw-620) was greater than 5.12 µM. For the same compound, the IC50 (A2780; a2780) was > 5.12 µM and 2.56 µM, the IC50 (NCI-H1355; Homo sapiens, NCI-H1355) was greater than 5.12 µM and the IC50 (NCI-H1355; nci-h1355) was greater than 5.12 µM. For the same compound, the IC50 (SNU-387; snu-387) was greater than 5.12 µM, the IC50 (RKO; Homo sapiens, RKO) was 3.06 µM and the IC50 (RKO; rko) was 3.19 µM. For the same compound, the IC50 (NCI-H1650; nci-h1650) was greater than 5.12 µM, the IC50 (AN3-CA) was 3.59 µM and the IC50 (NCI-H810; Homo sapiens, NCI-H810) was greater than 5.12 µM. For the same compound, the IC50 (NCI-H810; nci-h810) was greater than 5.12 µM, the IC50 (YAPC; yapc) was greater than 5.12 µM and the IC50 (MS-1) was greater than 5.12 µM. The IC50 (SCC-25; scc-25) was > 5.12 µM and 4.74 µM, the IC50 (TGBC24TKB; tgbc24tkb) was greater than 5.12 µM and the IC50 (TYK-nu; tyk-nu) was greater than 5.12 µM. It also gave an IC50 (MEG-01) greater than 5.12 µM, an IC50 (786-0) of 1.99 µM and an IC50 (786-0; Homo sapiens) of 1.31 µM. The IC50 (HCE-T; hce-t) was > 5.12 µM and 2.09 µM, the IC50 (SCH; sch) was greater than 5.12 µM and the IC50 (RT-112; Homo sapiens, RT-112) was greater than 5.12 µM. It also gave an IC50 (RT-112; rt-112) greater than 5.12 µM, an IC50 (CHL-1; Homo sapiens, CHL-1) greater than 5.12 µM and an IC50 (CHL-1; chl-1) of 4.72 µM. It also gave an IC50 (Capan-2; capan-2) greater than 5.12 µM, an IC50 (SK-LU-1; sk-lu-1) greater than 5.12 µM and an IC50 (NCI-H520; Homo sapiens, NCI-H520) of 4.21 µM. It also gave an IC50 (NCI-H520; nci-h520) greater than 5.12 µM, an IC50 (KYSE-520 cell line; Homo sapiens, KYSE-520) greater than 5.12 µM and an IC50 (KYSE-520 cell line; kyse-520) greater than 5.12 µM. The IC50 (HCC1954; Homo sapiens, HCC1954) was 5.06 µM, the IC50 (HCC1954; hcc1954) was greater than 5.12 µM and the IC50 (LC-2-ad; lc-2-ad) was greater than 5.12 µM. The IC50 (KNS-81-FD; kns-81-fd) was greater than 5.12 µM, the IC50 (ES7; es7) was 0.813 µM and 3.26 µM and the IC50 (TGW) was greater than 5.12 µM. The IC50 (OVCAR-3; ovcar-3) was 0.679 µM and 3.92 µM, the IC50 (SK-MEL-24) was greater than 5.12 µM and the IC50 (TE-10; te-10) was greater than 5.12 µM. The IC50 (NB10; Homo sapiens, NB10) was greater than 5.12 µM, the IC50 (NB10; nb10) was greater than 5.12 µM and the IC50 (MN-60) was greater than 5.12 µM. It also gave an IC50 (L-363) greater than 5.12 µM, an IC50 (SJSA-1; Homo sapiens, SJSA-1) greater than 5.12 µM and an IC50 (SJSA-1; sjsa-1) greater than 5.12 µM. The IC50 (KYSE-70 cell line; kyse-70) was greater than 5.12 µM, the IC50 (NB7) was greater than 5.12 µM and the IC50 (HuP-T4; hup-t4) was greater than 5.12 µM. For the same compound, the IC50 (FTC-133; ftc-133) was greater than 5.12 µM, the IC50 (BB49-HNC; bb49-hnc) was > 5.12 µM and 0.73 µM and the IC50 (SF-126; sf-126) was 4.46 µM and > 5.12 µM. It also gave an IC50 (JVM-3) greater than 5.12 µM, an IC50 (OCI-AML2) greater than 5.12 µM and an IC50 (ES5; es5) greater than 5.12 µM. It also gave an IC50 (SNU-5) greater than 5.12 µM and an IC50 (KP-N-YN) greater than 5.12 µM.
With `COc1ccc(-c2ccc3c(N4CCOC[C@@H]4C)nc(N4CCOC[C@@H]4C)nc3n2)cc1CO` [AZD-8055] the IC50 (KYSE-510; Homo sapiens, KYSE-510) was greater than 2 µM, the IC50 (GB-1; Homo sapiens, GB-1) was greater than 2 µM and the IC50 (LOX IMVI) was 0.551 µM. The IC50 (8505C; Homo sapiens, 8505C) was 1.29 µM, the IC50 (SW-620; Homo sapiens, SW-620) was greater than 2 µM and the IC50 (A2780; Homo sapiens, A2780) was 1.72 µM. It also gave an IC50 (NCI-H1355; Homo sapiens, NCI-H1355) of 0.539 µM, an IC50 (SNU-387; Homo sapiens, SNU-387) of 1.52 µM and an IC50 (RKO; Homo sapiens, RKO) of 0.868 µM. The IC50 (NCI-H1650; Homo sapiens, NCI-H1650) was greater than 2 µM, the IC50 (AN3-CA) was 0.0795 µM and the IC50 (NCI-H810; Homo sapiens, NCI-H810) was greater than 2 µM. It also gave an IC50 (YAPC; Homo sapiens, YAPC) greater than 2 µM, an IC50 (MS-1) greater than 2 µM and an IC50 (SCC-25; Homo sapiens, SCC-25) of 1.58 µM. It also gave an IC50 (TGBC24TKB; Homo sapiens, TGBC24TKB) of 1.86 µM, an IC50 (TYK-nu; Homo sapiens, TYK-nu) of 0.319 µM and an IC50 (MEG-01) greater than 2 µM. It also gave an IC50 (786-0; Homo sapiens) of 1.09 µM, an IC50 (HCE-T; Homo sapiens, HCE-T) of 1.18 µM and an IC50 (SCH; Homo sapiens, SCH) of 1.03 µM. For the same compound, the IC50 (RT-112; Homo sapiens, RT-112) was 0.849 µM, the IC50 (CHL-1; Homo sapiens, CHL-1) was 0.327 µM and the IC50 (Capan-2; Homo sapiens, Capan-2) was greater than 2 µM. For the same compound, the IC50 (SK-LU-1; Homo sapiens, SK-LU-1) was 0.392 µM, the IC50 (NCI-H520; Homo sapiens, NCI-H520) was 0.348 µM and the IC50 (KYSE-520 cell line; Homo sapiens, KYSE-520) was greater than 2 µM. It also gave an IC50 (HCC1954; Homo sapiens, HCC1954) greater than 2 µM, an IC50 (LC-2-ad; Homo sapiens, LC-2-ad) of 0.221 µM and an IC50 (KNS-81-FD; Homo sapiens, KNS-81-FD) of 1.89 µM. It also gave an IC50 (ES7; Homo sapiens, ES7) of 0.274 µM, an IC50 (TGW) greater than 2 µM and an IC50 (LoVo) of 0.202 µM. For the same compound, the IC50 (OVCAR-3; Homo sapiens, OVCAR-3) was greater than 2 µM, the IC50 (SK-MEL-24) was greater than 2 µM and the IC50 (TE-10; Homo sapiens, TE-10) was greater than 2 µM. For the same compound, the IC50 (NB10; Homo sapiens, NB10) was greater than 2 µM, the IC50 (MN-60) was 0.678 µM and the IC50 (L-363) was 0.39 µM. It also gave an IC50 (SJSA-1; Homo sapiens, SJSA-1) of 0.446 µM, an IC50 (KYSE-70 cell line; Homo sapiens, KYSE-70) of 1.74 µM and an IC50 (NB7) greater than 2 µM. The IC50 (HuP-T4; Homo sapiens, HuP-T4) was 1.49 µM, the IC50 (FTC-133; Homo sapiens, FTC-133) was greater than 2 µM and the IC50 (BB49-HNC; Homo sapiens, BB49-HNC) was 1.75 µM. For the same compound, the IC50 (SF-126; Homo sapiens, SF-126) was 0.887 µM, the IC50 (JVM-3) was 0.463 µM and the IC50 (OCI-AML2) was greater than 2 µM. For the same compound, the IC50 (ES5; Homo sapiens, ES5) was 0.0935 µM, the IC50 (SNU-5) was greater than 2 µM and the IC50 (KP-N-YN) was greater than 2 µM.
